In ChEMBL document CHEMBL1141566, “Synthesis and antitumor evaluation of bis aza-anthracene-9,10-diones and bis aza-anthrapyrazole-6-ones” (2008):

Columns and labels:
HT-29 [1] = assay: Effect on proapoptotic TRAF4 gene expression in human HT29 cells after 12 hrs; type: functional
HT-29 [2] = assay: Cytotoxicity against human HT29 cells after 72 hrs; type: functional; conditions: HT-29, 72 h
HT-29 [3] = assay: Effect on apoptosis in human HT29 PI-/AnnV- cells after 6 hrs by biparametric flow cytometric analysis; type: functional; conditions: HT-29, 6 h, read-out: LC50 (the source's name)
HT-29 [4] = assay: Effect on apoptosis in human HT29 PI+/AnnV- cells after 6 hrs by biparametric flow cytometric analysis; type: functional; conditions: HT-29, 6 h, read-out: LC50 (the source's name)
HT-29 [5] = assay: Effect on proapoptotic CASP8 gene expression in human HT29 cells after 6 hrs; type: functional
HT-29 [6] = assay: Effect on proapoptotic CASP9 gene expression in human HT29 cells after 6 hrs; type: functional
HT-29 [7] = assay: Effect on proapoptotic FAS gene expression in human HT29 cells after 6 hrs; type: functional
HT-29 [8] = assay: Effect on apoptotic NOL3 gene expression in human HT29 cells after 6 hrs; type: functional
HT-29 [9] = assay: Effect on proapoptotic CASP9 gene expression in human HT29 cells after 12 hrs; type: functional
HT-29 [10] = assay: Effect on proapoptotic BCLAF1 gene expression in human HT29 cells after 12 hrs; type: functional
HT-29 [11] = assay: Effect on apoptotic BIRC4 gene expression in human HT29 cells after 12 hrs; type: functional
HT-29 [12] = assay: Effect on apoptosis in human HT29 PI+/AnnV+ cells after 24 hrs by biparametric flow cytometric analysis; type: functional; conditions: HT-29, 24 h, read-out: LC50 (the source's name)
HT-29 [13] = assay: Effect on proapoptotic TNFRSF21 gene expression in human HT29 cells after 6 hrs; type: functional
HT-29 [14] = assay: Effect on apoptotic BCL2L1 gene expression in human HT29 cells after 12 hrs; type: functional
HT-29 [15] = assay: Effect on proapoptotic BAK1 gene expression in human HT29 cells after 12 hrs; type: functional
HT-29 [16] = assay: Effect on proapoptotic BFAR gene expression in human HT29 cells after 12 hrs; type: functional
HT-29 [17] = assay: Effect on proapoptotic BCL2 gene expression in human HT29 cells after 6 hrs; type: functional
HT-29 [18] = assay: Effect on apoptotic MCL1 gene expression in human HT29 cells after 6 hrs; type: functional
HT-29 [19] = assay: Effect on proapoptotic BNIP1 gene expression in human HT29 cells after 6 hrs; type: functional
HT-29 [20] = assay: Effect on apoptotic CFLAR gene expression in human HT29 cells after 6 hrs; type: functional
HT-29 [21] = assay: Effect on apoptotic BCL2L10 gene expression in human HT29 cells after 6 hrs; type: functional
HT-29 [22] = assay: Effect on apoptotic BIRC3 gene expression in human HT29 cells after 6 hrs; type: functional
HT-29 [23] = assay: Effect on apoptotic ABL1 gene expression in human HT29 cells after 12 hrs; type: functional
HT-29 [24] = assay: Effect on apoptotic BIRC8 gene expression in human HT29 cells after 6 hrs; type: functional
HT-29 [25] = assay: Effect on proapoptotic TNFRSF11B gene expression in human HT29 cells after 6 hrs; type: functional
HT-29 [26] = assay: Effect on proapoptotic BIK gene expression in human HT29 cells after 6 hrs; type: functional
HT-29 [27] = assay: Effect on proapoptotic CD27 gene expression in human HT29 cells after 12 hrs; type: functional
[28] = Ratio of Kapp for synthetic poly(dA-dT)]2 oligonucleotide to Kapp for synthetic poly(dG-dC)]2 oligonucleotide
HT-29 [29] = assay: Effect on proapoptotic CARD8 gene expression in human HT29 cells after 6 hrs; type: functional
HT-29 [30] = assay: Effect on proapoptotic BFAR gene expression in human HT29 cells after 6 hrs; type: functional
HT-29 [31] = assay: Effect on proapoptotic TRADD gene expression in human HT29 cells after 6 hrs; type: functional
HT-29 [32] = assay: Effect on apoptosis in human HT29 PI+/AnnV- cells after 12 hrs by biparametric flow cytometric analysis; type: functional; conditions: HT-29, 12 h, read-out: LC50 (the source's name)
HT-29 [33] = assay: Effect on proapoptotic NOD1 gene expression in human HT29 cells after 6 hrs; type: functional
HT-29 [34] = assay: Effect on apoptosis in human HT29 PI-/AnnV+ cells after 24 hrs by biparametric flow cytometric analysis; type: functional; conditions: HT-29, 24 h, read-out: LC50 (the source's name)
HT-29 [35] = assay: Effect on apoptotic BNIP2 gene expression in human HT29 cells after 6 hrs; type: functional
HT-29 [36] = assay: Effect on apoptosis in human HT29 PI+/AnnV+ cells after 12 hrs by biparametric flow cytometric analysis; type: functional; conditions: HT-29, 12 h, read-out: LC50 (the source's name)
HT-29 [37] = assay: Effect on proapoptotic CASP7 gene expression in human HT29 cells after 6 hrs; type: functional
HT-29 [38] = assay: Effect on proapoptotic TRAF3 gene expression in human HT29 cells after 6 hrs; type: functional
HT-29 [39] = assay: Effect on apoptotic ABL1 gene expression in human HT29 cells after 6 hrs; type: functional
HT-29 [40] = assay: Effect on proapoptotic TRAF4 gene expression in human HT29 cells after 6 hrs; type: functional
HT-29 [41] = assay: Effect on apoptosis in human HT29 PI-/AnnV- cells after 12 hrs by biparametric flow cytometric analysis; type: functional; conditions: HT-29, 12 h, read-out: LC50 (the source's name)
HT-29 [42] = assay: Effect on apoptotic BCL2L10 gene expression in human HT29 cells after 12 hrs; type: functional
HT-29 [43] = assay: Effect on apoptosis in human HT29 PI-/AnnV- cells after 24 hrs by biparametric flow cytometric analysis; type: functional; conditions: HT-29, 24 h, read-out: LC50 (the source's name)
HT-29 [44] = assay: Effect on apoptotic GADD45A gene expression in human HT29 cells after 6 hrs; type: functional
HT-29 [45] = assay: Effect on proapoptotic BNIP3L gene expression in human HT29 cells after 12 hrs; type: functional
HT-29 [46] = assay: Effect on proapoptotic BID gene expression in human HT29 cells after 6 hrs; type: functional
HT-29 [47] = assay: Effect on apoptotic NAIP gene expression in human HT29 cells after 12 hrs; type: functional
HT-29 [48] = assay: Effect on proapoptotic FADD gene expression in human HT29 cells after 6 hrs; type: functional
HT-29 [49] = assay: Effect on apoptosis in human HT29 PI+/AnnV- cells after 24 hrs by biparametric flow cytometric analysis; type: functional; conditions: HT-29, 24 h, read-out: LC50 (the source's name)
HT-29 [50] = assay: Effect on apoptotic BRAF gene expression in human HT29 cells after 6 hrs; type: functional
HT-29 [51] = assay: Effect on proapoptotic CD27 gene expression in human HT29 cells after 6 hrs; type: functional
HT-29 [52] = assay: Effect on apoptotic BIRC4 gene expression in human HT29 cells after 6 hrs; type: functional
HT-29 [53] = assay: Effect on proapoptotic CD70 gene expression in human HT29 cells after 6 hrs; type: functional
HT-29 [54] = assay: Effect on proapoptotic BAX gene expression in human HT29 cells after 6 hrs; type: functional
HT-29 [55] = assay: Effect on proapoptotic BNIP3L gene expression in human HT29 cells after 6 hrs; type: functional
HT-29 [56] = assay: Effect on proapoptotic BAK1 gene expression in human HT29 cells after 6 hrs; type: functional
HT-29 [57] = assay: Effect on proapoptotic CASP7 gene expression in human HT29 cells after 12 hrs; type: functional
HT-29 [58] = assay: Effect on proapoptotic TRADD gene expression in human HT29 cells after 12 hrs; type: functional
HT-29 [59] = assay: Effect on proapoptotic TRAF2 gene expression in human HT29 cells after 6 hrs; type: functional
HT-29 [60] = assay: Effect on proapoptotic CD70 gene expression in human HT29 cells after 12 hrs; type: functional
HT-29 [61] = assay: Effect on proapoptotic CIDEB gene expression in human HT29 cells after 12 hrs; type: functional
HT-29 [62] = assay: Effect on apoptotic NAIP gene expression in human HT29 cells after 6 hrs; type: functional
HT-29 [63] = assay: Effect on apoptotic NOL3 gene expression in human HT29 cells after 12 hrs; type: functional
HT-29 [64] = assay: Effect on proapoptotic BCL2 gene expression in human HT29 cells after 12 hrs; type: functional
HT-29 [65] = assay: Effect on proapoptotic TP53 gene expression in human HT29 cells after 6 hrs; type: functional
HT-29 [66] = assay: Effect on proapoptotic CARD6 gene expression in human HT29 cells after 6 hrs; type: functional
HT-29 [67] = assay: Effect on apoptosis in human HT29 PI-/AnnV+ cells after 12 hrs by biparametric flow cytometric analysis; type: functional; conditions: HT-29, 12 h, read-out: LC50 (the source's name)
HT-29 [68] = assay: Effect on proapoptotic CIDEB gene expression in human HT29 cells after 6 hrs; type: functional
HT-29 [69] = assay: Effect on apoptosis in human HT29 PI+/AnnV+ cells after 6 hrs by biparametric flow cytometric analysis; type: functional; conditions: HT-29, 6 h, read-out: LC50 (the source's name)
HT-29 [70] = assay: Effect on apoptotic BNIP2 gene expression in human HT29 cells after 12 hrs; type: functional
HT-29 [71] = assay: Effect on proapoptotic CASP6 gene expression in human HT29 cells after 6 hrs; type: functional
HT-29 [72] = assay: Effect on proapoptotic BAX gene expression in human HT29 cells after 12 hrs; type: functional
HT-29 [73] = assay: Effect on proapoptotic BCL2L11 gene expression in human HT29 cells after 6 hrs; type: functional
HT-29 [74] = assay: Effect on apoptosis in human HT29 PI-/AnnV+ cells after 6 hrs by biparametric flow cytometric analysis; type: functional; conditions: HT-29, 6 h, read-out: LC50 (the source's name)

CN(C)CCNc1ccc(NCCCN(C)CCCNc2ccc(NCCN(C)C)c3c2C(=O)c2cnccc2C3=O)c2c1C(=O)c1ccncc1C2=O
Fold change (HT-29 [1]): 23 | GI50 (HT-29 [2]): 0.3 µM | LC50 (concentration killing 50% of cells) (HT-29 [2]): 62 µM | TGI (HT-29 [2]): 5.1 µM | CC50 (HT-29 [3]): 88.5 µM | CC50 (HT-29 [4]): 3.3 µM | Fold change (HT-29 [5]): 2.5 | Fold change (HT-29 [6]): 3 | Fold change (HT-29 [7]): 2.2 | Fold change (HT-29 [8]): 4.7 | Fold change (HT-29 [9]): 8.5 | Fold change (HT-29 [10]): 136 | Fold change (HT-29 [11]): 2 | CC50 (HT-29 [12]): 18.3 µM | Fold change (HT-29 [13]): 3.7 | Fold change (HT-29 [14]): -5.9 | Fold change (HT-29 [15]): 4.1 | Fold change (HT-29 [16]): -2.5 | Fold change (HT-29 [17]): 4.2 | Fold change (HT-29 [18]): -10 | Fold change (HT-29 [19]): 3 | Fold change (HT-29 [20]): 4 | Fold change (HT-29 [21]): 3.1 | Fold change (HT-29 [22]): 2.5 | Fold change (HT-29 [23]): 58 | Fold change (HT-29 [24]): -2.3 | Fold change (HT-29 [25]): 2.1 | Fold change (HT-29 [26]): 5.2 | Fold change (HT-29 [27]): 2.2 | Ratio [28]: 2.5 | Fold change (HT-29 [29]): 4 | Fold change (HT-29 [30]): 5.4 | Fold change (HT-29 [31]): 4.3 | CC50 (HT-29 [32]): 5.3 µM | Fold change (HT-29 [33]): 4.2 | CC50 (HT-29 [34]): 36.3 µM | Fold change (HT-29 [35]): -2.9 | CC50 (HT-29 [36]): 1.2 µM | Fold change (HT-29 [37]): 6.4 | Fold change (HT-29 [38]): 4.5 | Fold change (HT-29 [39]): 33 | Fold change (HT-29 [40]): 94 | CC50 (HT-29 [41]): 83.2 µM | Fold change (HT-29 [42]): 7.8 | CC50 (HT-29 [43]): 37.1 µM | Fold change (HT-29 [44]): 3 | Fold change (HT-29 [45]): 3.6 | Fold change (HT-29 [46]): 4.3 | Fold change (HT-29 [47]): 52 | Fold change (HT-29 [48]): 2.4 | CC50 (HT-29 [49]): 8.3 µM | Fold change (HT-29 [50]): 2.4 | Fold change (HT-29 [51]): 2.2 | Fold change (HT-29 [52]): 9.3 | Fold change (HT-29 [53]): 2.2 | Fold change (HT-29 [54]): 5.3 | Fold change (HT-29 [55]): 7.4 | Fold change (HT-29 [56]): 4.5 | Fold change (HT-29 [57]): 3 | Fold change (HT-29 [58]): 2.5 | Fold change (HT-29 [59]): 2.4 | Fold change (HT-29 [60]): 2.2 | Fold change (HT-29 [61]): 4.4 | Fold change (HT-29 [62]): 9.6 | Fold change (HT-29 [63]): 15 | Fold change (HT-29 [64]): -5.9 | Fold change (HT-29 [65]): 3 | Fold change (HT-29 [66]): -5 | CC50 (HT-29 [67]): 10.3 µM | Fold change (HT-29 [68]): 9.3 | CC50 (HT-29 [69]): 0.8 µM | Fold change (HT-29 [70]): -3.3 | Fold change (HT-29 [71]): 3 | Fold change (HT-29 [72]): 3 | Fold change (HT-29 [73]): 7.7 | CC50 (HT-29 [74]): 7.4 µM
